Holding throughout (type): functional
For test [1], the system named is Fusarium graminearum. Description: Antifungal activity against Fusarium graminearum by microbroth dilution assay.
Test [2] deals with Staphylococcus aureus. Description: Antibacterial activity against Staphylococcus aureus ATCC 25923 after 12 to 18 hrs.
Test [3] deals with Escherichia coli. The test can be described thus: Antibacterial activity against Escherichia coli ATCC 25922 after 12 to 18 hrs.
Test [4] relates to Fusarium graminearum. The test can be described thus: Antifungal activity against Fusarium graminearum after 12 to 18 hrs.
Test [5] has as its system Aspergillus flavus. The test can be described thus: Antifungal activity against Aspergillus flavus after 12 to 18 hrs.
The next test deals with Pseudomonas aeruginosa. Description: Antibacterial activity against Pseudomonas aeruginosa ATCC 27853 by microbroth dilution assay.
Another test deals with Rhodotorula mucilaginosa. The test can be described thus: Antifungal activity against Rhodotorula pilimanae by microbroth dilution assay.
The test system of test [6] is Klebsiella pneumoniae. Description: Antibacterial activity against Klebsiella pneumoniae […] by microbroth dilution assay.
The subject of another test is Enterococcus faecalis. Description: Antibacterial activity against Enterococcus faecalis ATCC 29212 by microbroth dilution assay.
For test [7], the system named is Klebsiella pneumoniae. The test can be described thus: Antibacterial activity against Klebsiella pneumoniae ATCC 700603 by microbroth dilution assay.
The subject of test [8] is Fusarium oxysporum. Description: Antifungal activity against Fusarium oxysporum by microbroth dilution assay.
Test [9] concerns Candida albicans. The test can be described thus: Antifungal activity against Candida albicans by microbroth dilution assay.
A further test has as its system Saccharomyces cerevisiae. Description: Antifungal activity against Saccharomyces cerevisiae W303 by microbroth dilution assay.
Test [10] deals with Staphylococcus aureus. Description: Antibacterial activity against Staphylococcus aureus ATCC 25923 by microbroth dilution assay.
The test system of test [11] is Escherichia coli. The test can be described thus: Antibacterial activity against Escherichia coli TG1 by microbroth dilution assay.
The subject of test [12] is Candida albicans. The test can be described thus: Antifungal activity against Candida albicans 94-2181.
Test [13] relates to Fusarium graminearum. Description: Antifungal activity against Fusarium graminearum B4-5A strain E after 48 hrs by microdilution assay.
Test [14] deals with Fusarium graminearum. Description: Antifungal activity against Fusarium graminearum B4-5A strain B after 48 hrs by microdilution assay.
Test [15] relates to Candida albicans. The test can be described thus: Antifungal activity against resistant Candida albicans ATCC 64124.
Another test deals with Clavispora lusitaniae. Description: Antifungal activity against Candida lusitaniae 95-767.
Test [16] concerns Candida parapsilosis. The test can be described thus: Antifungal activity against sensitive Candida parapsilosis. The note with it: Lodderomyces parapsilosis.
Test [17] has as its system Candida parapsilosis. The test can be described thus: Antifungal activity against resistant Candida parapsilosis. The note with it: Lodderomyces parapsilosis.
Test [18] deals with Cryptococcus neoformans. Description: Antifungal activity against Cryptococcus neoformans 94-2586.
Test [19] concerns Cryptococcus neoformans. The test can be described thus: Antifungal activity against Cryptococcus neoformans H99. The note with it: var grubii H99.
For test [20], the system named is Candida albicans. The test can be described thus: Antifungal activity against Candida albicans ATCC 10231.
The test system of another test is Candida tropicalis. The test can be described thus: Antifungal activity against Candida tropicalis 95-41.
The test system of test [21] is Candida albicans. Description: Antifungal activity against Candida albicans B-311.
The next test deals with Diutina rugosa. The test can be described thus: Antifungal activity against Candida rugosa 95-967.
Test [22] deals with Fusarium graminearum. Description: Antifungal activity against Fusarium graminearum B4-5A strain D after 48 hrs by microdilution assay.
The test system of test [23] is Fusarium graminearum. Description: Antifungal activity against Fusarium graminearum B4-5A strain C after 48 hrs by microdilution assay.
Test [24] deals with Cryptococcus neoformans. Description: Antifungal activity against Cryptococcus neoformans 90-26.
In test [25] the test system is Candida albicans. The test can be described thus: Antifungal activity against sensitive Candida albicans MYA-2876.
For test [26], the system named is Fusarium graminearum. Description: Antifungal activity against Fusarium graminearum B4-5A strain A after 48 hrs by microdilution assay.
For test [27], the system named is Aspergillus flavus. Description: Antifungal activity against Aspergillus flavus.
The test system of the next test is Kluyveromyces marxianus. Description: Antifungal activity against Candida pseudotropicalis YOGI.
Another test relates to Micrococcus luteus. Description: Antibacterial activity against Micrococcus luteus ATCC 10240.
The subject of another test is Aspergillus niger. The test can be described thus: Antifungal activity against Aspergillus niger.
Test [28] has as its system Staphylococcus aureus. Description: Antibacterial activity against Staphylococcus aureus ATCC 25923.
In test [29] the test system is Escherichia coli. The test can be described thus: Antibacterial activity against Escherichia coli TG1.
In test [30] the test system is Fusarium oxysporum. The test can be described thus: Antifungal activity against Fusarium oxysporum.
In test [31] the test system is Fusarium graminearum. Description: Antifungal activity against Fusarium graminearum B-4-5A.
Test [32] concerns Fusarium graminearum. The test can be described thus: Antifungal activity against Fusarium graminearum infected in wheat plant assessed as contamination of wheat heads and kernels with deoxynivalenol at 5.5 ml/L (reference value: 1.2 ppm).
The test system of test [33] is Fusarium graminearum. Description: Antifungal activity against Fusarium graminearum infected in wheat plant assessed as contamination of wheat heads and kernels with deoxynivalenol at 2.8 ml/L (reference value: 1.2 ppm).

Structures are written as SMILES. Values after ≈ are worked out from the molar mass of the structure shown.

With `CCCCCCCCO[C@@H]1[C@@H](N)[C@@H](O[C@H]2[C@H](O)[C@@H](O[C@H]3O[C@H](CO)[C@@H](O)[C@H](O)[C@H]3O)[C@H](N)C[C@@H]2N)O[C@H](CN)[C@H]1O`, in the test on Fusarium graminearum [1], the MIC is over 500 µg/mL.

On to `CCCCCCCCCOC[C@H]1O[C@H](O[C@@H]2[C@@H](O)[C@H](O[C@H]3O[C@H](CN)[C@@H](O)[C@H](O)[C@H]3O)[C@@H](N)C[C@H]2N)[C@H](O)[C@@H](N)[C@@H]1OCCCCCCCCC`, for which the MIC against Staphylococcus aureus [2] is 8 µg/mL (≈ 10.9 µM); against Escherichia coli [3], 16 µg/mL (≈ 21.7 µM); in the test on Fusarium graminearum [4], 125 µg/mL (≈ 170 µM); against Aspergillus flavus [5], 500 µg/mL (≈ 678 µM).

In the case of `CCCCCCCO[C@H]1[C@H](N)[C@@H](O)[C@@H](O[C@@H]2[C@@H](O)[C@H](O[C@H]3O[C@H](CN)[C@@H](O)[C@H](O)[C@H]3O)[C@@H](N)C[C@H]2N)O[C@@H]1CO`, the MIC is 125 µg/mL (≈ 215 µM) with Staphylococcus aureus [2], at least 250 µg/mL in the test on Escherichia coli [3], 125 µg/mL (≈ 215 µM) in the test on Fusarium graminearum [4] and over 500 µg/mL in the test with Aspergillus flavus [5].

In the test on Fusarium graminearum [1], `CCCCCCCCO[C@@H]1[C@@H](O)[C@H](O)[C@H](O[C@H]2[C@H](O)[C@@H](O[C@@H]3O[C@@H](CN)[C@H](O)[C@@H](O)[C@@H]3N)[C@H](N)C[C@@H]2N)O[C@H]1CO` (single isomer, unassigned) showed an MIC of 7.8 µg/mL (≈ 13.1 µM).

As to `CCCCCCOC[C@@H]1O[C@@H](O[C@@H]2[C@@H](O)[C@H](O[C@@H]3O[C@@H](CN)[C@H](O)[C@@H](O)[C@@H]3N)[C@@H](N)C[C@H]2N)[C@@H](O)[C@H](O)[C@H]1O` (stereo in doubt), in the test with Fusarium graminearum [1], the MIC was 125 µg/mL (≈ 220 µM). Compared with the last compound, the MIC is about 16-fold higher.

The compound `CCCCCCCCOC[C@@H]1O[C@@H](O[C@@H]2[C@@H](O)[C@H](O[C@@H]3O[C@@H](CN)[C@H](O)[C@@H](O)[C@@H]3N)[C@@H](N)C[C@H]2N)[C@@H](O)[C@H](O)[C@H]1O` (stereo in doubt) gave an MIC against Fusarium graminearum [1] of 31.3 µg/mL (≈ 52.5 µM).

For the compound `NC[C@H]1O[C@H](O[C@H]2[C@H](O)[C@@H](O[C@H]3O[C@H](CO)[C@@H](O)[C@H](N)[C@H]3O)[C@H](N)C[C@@H]2N)[C@H](N)[C@@H](O)[C@@H]1O` [BEKANAMYCIN], the MIC against Pseudomonas aeruginosa was 1.95 µg/mL (≈ 4.03 µM); in the test with Rhodotorula mucilaginosa it was over 250 µg/mL; in the test with Klebsiella pneumoniae [6] it was 1.95 µg/mL (≈ 4.03 µM); against Fusarium graminearum [1], over 250 µg/mL; with Enterococcus faecalis, under 0.98 µg/mL; against Klebsiella pneumoniae [7] it was 1.95 µg/mL (≈ 4.03 µM). For the same compound, the MIC against Fusarium oxysporum [8] was over 250 µg/mL; with Candida albicans [9], over 250 µg/mL; with Saccharomyces cerevisiae, over 250 µg/mL; against Staphylococcus aureus [10], under 0.98 µg/mL; against Escherichia coli [11] it was 1.95 µg/mL (≈ 4.03 µM).

In the case of `OC(Cn1cncn1)(Cn1cncn1)c1ccc(F)cc1F` [FLUCONAZOLE], the MIC against Candida albicans [12] is over 12.5 µg/mL; in the test on Fusarium graminearum [13], over 25 µg/mL; in the test with Fusarium graminearum [14], over 25 µg/mL; in the test with Candida albicans [15], over 200 µg/mL; with Clavispora lusitaniae it was 1.56 µg/mL (≈ 5.09 µM); with Candida parapsilosis [16] it was 0.12 µg/mL (≈ 0.392 µM). For the same compound, the MIC against Candida parapsilosis [17] is over 16 µg/mL; against Cryptococcus neoformans [18], 1.56 µg/mL (≈ 5.09 µM); with Cryptococcus neoformans [19], 1.56 µg/mL (≈ 5.09 µM); in the test with Candida albicans [20], 25 µg/mL (≈ 81.6 µM); against Candida tropicalis it was over 25 µg/mL; against Candida albicans [21] it was over 25 µg/mL. Moreover, the minimum inhibitory concentration (MIC) against Diutina rugosa is over 0.78 µg/mL; in the test with Fusarium graminearum [22], over 12.5 µg/mL; against Fusarium graminearum [23], over 2 µg/mL; with Cryptococcus neoformans [24], over 0.195 µg/mL; in the test on Candida albicans [25], 1.56 µg/mL (≈ 5.09 µM); in the test on Fusarium graminearum [26], over 200 µg/mL.

On to `CCC(C)n1ncn(-c2ccc(N3CCN(c4ccc(OCC5COC(Cn6cncn6)(c6ccc(Cl)cc6Cl)O5)cc4)CC3)cc2)c1=O` (stereo not drawn) [ITRACONAZOLE], for which the MIC in the test on Candida albicans [12] was 8 to 16 µg/mL (≈ 11.3 to 22.7 µM); in the test on Candida albicans [15], over 64 µg/mL; against Clavispora lusitaniae, 0.2 µg/mL (≈ 0.283 µM); against Candida parapsilosis [16], 0.015 µg/mL (≈ 0.0213 µM); with Candida parapsilosis [17] it was 0.5 µg/mL (≈ 0.709 µM); against Cryptococcus neoformans [18], 0.06 µg/mL (≈ 0.085 µM). Besides, the MIC against Aspergillus flavus [27] is 0.125 µg/mL (≈ 0.177 µM); in the test with Cryptococcus neoformans [19] it was 1.56 µg/mL (≈ 2.21 µM); with Candida albicans [20] it was 0.75 µg/mL (≈ 1.06 µM); in the test on Candida tropicalis it was over 25 µg/mL; in the test on Candida albicans [21], 16 to 32 µg/mL (≈ 22.7 to 45.3 µM); in the test on Diutina rugosa it was 0.12 µg/mL (≈ 0.17 µM). The MIC with Kluyveromyces marxianus is 0.125 to 0.8 µg/mL (≈ 0.177 to 1.13 µM); against Cryptococcus neoformans [24], 0.37 µg/mL (≈ 0.524 µM); against Candida albicans [25] it was over 2 µg/mL.

For `NC[C@H]1O[C@H](O[C@H]2[C@H](O)[C@@H](O[C@H]3O[C@H](CO)[C@@H](O)[C@H](N)[C@H]3O)[C@H](N)C[C@@H]2N)[C@H](O)[C@@H](O)[C@@H]1O` [KANAMYCIN], the MIC was 1.95 µg/mL (≈ 4.02 µM) in the test with Micrococcus luteus; over 250 µg/mL in the test with Aspergillus niger; over 250 µg/mL with Candida albicans [12]; over 500 µg/mL against Candida albicans [15]; over 250 µg/mL in the test with Clavispora lusitaniae; under 0.98 µg/mL in the test on Staphylococcus aureus [28]. Besides, the MIC against Candida parapsilosis [16] is over 250 µg/mL; against Escherichia coli [29], 1.95 µg/mL (≈ 4.02 µM); in the test with Cryptococcus neoformans [18], over 125 µg/mL; against Aspergillus flavus [27], over 250 µg/mL; against Cryptococcus neoformans [19], over 125 µg/mL; against Candida albicans [20] it was over 250 µg/mL. In addition, the MIC was over 250 µg/mL in the test with Candida tropicalis; over 250 µg/mL with Candida albicans [21]; over 250 µg/mL with Diutina rugosa; over 250 µg/mL in the test on Fusarium oxysporum [30]; over 125 µg/mL in the test on Fusarium graminearum [31]; over 250 µg/mL in the test with Kluyveromyces marxianus. Besides, the MIC in the test with Cryptococcus neoformans [24] and with Candida albicans [25] was over 250 µg/mL in each case.

`OC(Cc1ccccc1Cl)(Cn1nc[nH]c1=S)C1(Cl)CC1` (stereo not drawn) [PROTHIOCONAZOLE]: the Activity stood at 0.7 ppm in the test on Fusarium graminearum [32] and 1.1 ppm in the test on Fusarium graminearum [33].
